Data on one compound can be found in US20090018175A1, “Pharmaceutical excipient complex” (priority 2007, published 2009).

The conditions of data set [1]: cited from earlier work.
Data set [2] can be described thus: Stability of the tablet produced according to Example 5 (impurity content on storage). It is filed as physicochemical. Conditions: tablet of Example 5, four days at 70° C., 100 percent relative humidity.
Description: As used herein, the term “stable” with reference to candesartan cilexetil relates to candesartan cilexetil having about 0.01% to about 0.5% of desethyl-candesartan (“desethyl-CNS”) impurity present in the total weight of the composition, after storage for four days at a temperature of 65° C. and a relative humidity of 100 percent; and/or having about 0.01% to about 0.5% of 2-N-ethyl candesartan (“2-N-ethyl CNS”) impurity present in the total weight of the composition, after storage for four days at a temperature of 65° C. and a relative humidity of 100 percent; and/or having about 0.01% to about 0.2% of impurities other than desethyl-CNS and 2-N-ethyl CNS present in the total weight of the composition, after storage for four days at a temperature of 65° C. and a relative humidity of 100 percent.

Molecules are shown by their SMILES. Read-outs that look alike come from different tables or passages of the source.

With `CCOc1nc2cccc(C(=O)OC(C)OC(=O)OC3CCCCC3)c2n1Cc1ccc(-c2ccccc2-c2nnn[nH]2)cc1` (racemic) [candesartan cilexetil, (±)-1-[[(cyclohexyloxy)carbonyl]oxy]ethyl-2-ethoxy-1-[[2′-(1H-tetrazol-5-yl)[1,1′biphenyl]-4-yl]methyl]-1H-benzimidazole-7-carboxylate], the solubility entry in data set [1] (in methanol) and in data set [1] (in water) was “sparingly soluble” each time. Moreover, in data set [2], the “degradation of candesartan cilexetil when tabletted with the excipient complex (conclusion)” value is recorded as “did not degrade significantly”.
